According to patent publication US12458621B1, “Application of genipin beta-methyl derivative gen-17 in preparation of drug for prevention and treatment of acute severe pneumonia” (KUNMING MEDICAL UNIVERSITY, priority 2024, dated 2025):

Experiments:
Format in all cases: in vivo, Kunming mice
[1] = system: LPS-induced ALI mice; experiment: HE staining histopathology and alveolitis score of lung tissue; settings: for pathological scores of alveolitis: compared with DEX group (P<0.05)
Protocol: The dosage is converted according to the weight of the mice, and the gavage volume is 20 milliliters per kilogram (mL/kg), and the gavage is continued for 3 days. One hour after the gavage on the third day, the ALI model is established by tracheal instillation of LPS solution. […] After the mice are awake, they are raised as usual. 2.3 Treatment of Experimental Animals and Collection of Lung Tissue Specimens
Samples are collected 24 hours after the animal model is established. The mice are weighed and 12 mice in each group are sacrificed. Lung tissues are collected and the whole lung wet weight is measured. The lung tissues are packaged for hematoxylin and eosin (HE) staining, MDA and SOD content determination, gene and protein detection. The specific experimental procedures are as follows. • (1) 12 mice in each group are weighed and their necks are dislocated and sacrificed. • (2) The mice are fixed. The abdomen is wiped with 75% alcohol. The thoracic cavity is then opened, and the lung tissue is removed. After tidying, the lungs are photographed, excess tissues such as the trachea are cleared away, and the wet weight of the whole lung is measured to calculate the lung index. • (3) The upper lobe of the left lung is fixed in 4% neutral paraformaldehyde, fixed for 24 hours, paraffin-embedded and sectioned for HE staining. • (4) The remaining lung tissues are put into centrifugal tubes separately, quickly frozen in liquid nitrogen, and then stored at −80° C. after the experiment, which is used for the detection of MDA, SOD, western blotting (WB) and reverse transcription polymerase chain reaction (RT-PCR). 2.4 BALF Collection and Processing

[2] = system: p38 phosphorylated protein; experiment: p38 phosphorylated protein in lung tissue by WB
Protocol: (§1) A total of 144 SPF-grade healthy Kunming mice, aged 5-7 weeks and weighing 18-22 g, are weighed and randomly allocated into six experimental groups: control group (NS), model group (LPS), dexamethasone group (DEX, […] per kilogram abbreviated as mg/kg), genipin beta-methyl derivative low-dose group (12.5 mg/kg), genipin beta-methyl derivative medium-dose group (25 mg/kg), and genipin beta-methyl derivative high-dose group (50 mg/kg), 24 animals per group, in which 12 animals are used to take lung tissue for the detection of other indicators, and another 12 animals are used to collect BALF.
(§2) All mice are gavaged with a same volume of 0.9% normal saline once a day in the NS group and the LPS group, DEX solution (0.39 mg/kg) is gavaged once a day in the DEX group, low-dose Gen-17 solution (12.5 mg/kg) is gavaged once a day in the medium-dose Gen-17 group, medium-dose Gen-17 solution (25 mg/kg) is gavaged once a day in the high-dose Gen-17 group, and high-dose Gen-17 solution (50 mg/kg) is gavaged once a day in the high-dose Gen-17 group. The dosage is converted according to the weight of the mice, and the gavage volume is 20 milliliters per kilogram (mL/kg), and the gavage is continued for 3 days. […]
(§3) Samples are collected 24 hours after the animal model is established. […] Lung tissues are collected and the whole lung wet weight is measured. […] After tidying, the lungs are photographed, excess tissues such as the trachea are cleared away, and the wet weight of the whole lung is measured to calculate the lung index. • (3) The upper lobe of the left lung is fixed in 4% neutral paraformaldehyde, fixed for 24 hours, paraffin-embedded and sectioned for HE staining. • (4) The remaining lung tissues are put into centrifugal tubes separately, quickly frozen in liquid nitrogen, and then stored at −80° C. after the experiment, which is used for the detection of MDA, SOD, western blotting (WB) and reverse transcription polymerase chain reaction (RT-PCR). […]
The lung tissue is taken out from −80° C., and its weight is accurately measured. […]

[3] = system: IL-1β; experiment: IL-1β mRNA in lung tissue by qRT-PCR; settings: Gen-17 (12.5, 25, 50 mg/kg gavage) compared with LPS group (P<0.001)
Protocol: as §1, with “BALF. […]” for “BALF.”
as §3

[4] = system: LPS-induced ALI mice; experiment: Lung index (lung wet weight/body weight), LPS-induced ALI mice
Protocol: as §1
All mice are gavaged with a same volume of 0.9% normal saline once a day in the NS group and the LPS group, DEX solution (0.39 mg/kg) is gavaged once a day in the DEX group, low-dose Gen-17 solution (12.5 mg/kg) is gavaged once a day in the medium-dose Gen-17 group, medium-dose Gen-17 solution (25 mg/kg) is gavaged once a day in the high-dose Gen-17 group, and high-dose Gen-17 solution (50 mg/kg) is gavaged once a day in the high-dose Gen-17 group. The dosage is converted according to the weight of the mice, and the gavage volume is 20 milliliters per kilogram (mL/kg), and the gavage is continued for 3 days. One hour after the gavage on the third day, the ALI model is established by tracheal instillation of LPS solution. The specific experimental procedures are as follows. • (1) Before the operation, the mice are anesthetized by intraperitoneal injection of 1% sodium pentobarbital (30 mg/kg) according to their body weight. • (2) Limbs of anesthetized mice are fixed with rubber bands, teeth are wired with thin threads, and neck skin is disinfected with 75% alcohol. • (3) A subcutaneous tissue is separated along a longitudinal incision in a middle of the mouse neck until a cartilage ring appeared in an exposed trachea. • (4) A microinjector is inserted into the trachea in parallel towards a proximal end for about 1 centimeter (cm). Sterile NS is slowly dripped into the trachea of the control group, and LPS is dripped into the trachea of the other groups. • (5) After pulling out the microinjector, the mice are upright immediately, rotated and shaken evenly for 2 minutes (min), then the neck wound is sutured, and the state of the mice is observed. After the mice are awake, they are raised as usual. 2.3 Treatment of Experimental Animals and Collection of Lung Tissue Specimens
Samples are collected 24 hours after the animal model is established. The mice are weighed and 12 mice in each group are sacrificed. Lung tissues are collected and the whole lung wet weight is measured. The lung tissues are packaged for hematoxylin and eosin (HE) staining, MDA and SOD content determination, gene and protein detection. […] After tidying, the lungs are photographed, excess tissues such as the trachea are cleared away, and the wet weight of the whole lung is measured to calculate the lung index. • (3) The upper lobe of the left lung is fixed in 4% neutral paraformaldehyde, fixed for 24 hours, paraffin-embedded and sectioned for HE staining. • (4) The remaining lung tissues are put into centrifugal tubes separately, quickly frozen in liquid nitrogen, and then stored at −80° C. after the experiment, which is used for the detection of MDA, SOD, western blotting (WB) and reverse transcription polymerase chain reaction (RT-PCR). […]

[5] = system: TNF-α; experiment: TNF-α content in BALF by ELISA
Protocol: as §1
as §2, with “days. One hour after the gavage on the third day, the ALI model is established by tracheal instillation of LPS solution.” for “days.”

[6] = system: Keap1; experiment: Keap1 gene expression in lung tissue by qRT-PCR
Protocol: as §1, with “BALF. […]” for “BALF.”
as §3

[7] = Gen-17 groups (12.5, 25, 50 mg/kg gavage) compared with LPS group
[8] = Gen-17 groups (12.5, 25, 50 mg/kg gavage) compared with NS group

COC(=O)C1=CO[C@@H](OC)[C@@H]2C(COC(=O)c3cccc(Br)c3)=CC[C@H]12 [Gen-17, genipin beta-methyl derivative]
pathological damage of lung tissue (HE staining) [1, 7]: significantly alleviate the pathological damage
pathological score of lung tissue ([1]; high-dose Gen-17 50 mg/kg gavage, compared with LPS group (P<0.01)): significantly reduced
pathological scores of alveolitis ([1]; low-dose Gen-17 12.5 mg/kg gavage): increased
pathological scores of alveolitis ([1]; medium-dose Gen-17 25 mg/kg gavage): increased
expression of phosphorylated protein p38 in lung tissue ([2]; Gen-17 groups (12.5, 25, 50 mg/kg gavage) compared with DEX group (P>0.05)): no statistically significant change
expression of p38 phosphorylated protein in lung tissue ([2]; after drug treatment, compared with LPS group): down-regulate the expression of p38, ERK and JNK proteins
expression of p38 phosphorylated protein in lung tissue, statistical significance of decrease ([2]; low-dose Gen-17 12.5 mg/kg gavage, compared with LPS group, excepted from significance (P<0.05)): except for the low-dose Gen-17 group
mRNA expression of IL-1β in lung tissue [3]: significantly reduce the expression
degree of pulmonary edema (lung index), overall result ([4]; Gen-17 12.5, 25, 50 mg/kg gavage, ALI mice): reduce the degree of pulmonary edema in ALI mice to varying degrees
lung index [4, 8]: statistically significant (P<0.05)
lung index ([4]; high-dose Gen-17 50 mg/kg gavage, compared with LPS group): statistically significant (P<0.01)
lung index ([4]; low-dose Gen-17 12.5 mg/kg gavage, compared with DEX group (P<0.05)): increases most significantly
lung index ([4]; medium-dose Gen-17 25 mg/kg gavage, compared with LPS group): statistically significant (P<0.01)
reduction of the TNF-α level in BALF ([5]; Gen-17 compared with DEX group (P>0.05)): no statistically significant difference
content of TNF-α in BALF [5, 7]: reduce the contents of inflammatory cytokines
expression of Keap1 gene in lung tissue ([6]; Gen-17 groups (12.5, 25, 50 mg/kg gavage) compared with DEX group (P<0.001)): significantly increased
expression of Keap1 gene in lung tissue [6, 8]: significantly increased (P<0.001)
